Values quoted from earlier work as cited in US10955416B2, “Compositions for detecting mutant anaplastic lymphoma kinase in human lung cancer” (CELL SIGNALING TECHNOLOGY, INC., priority 2006, dated 2021).

System: lymphoma cells
Settings: Marzec et al., Lab. Invest. 85(12): 1544-54 (2005); cited from earlier work

| Structure (SMILES) | apoptosis in lymphoma cells | proliferation in lymphoma cells |
| --- | --- | --- |
| COc1cc2ncnc(Nc3ccc(O)cc3)c2cc1OC [WHI-131] | induce apoptosis | suppress proliferation |
| COc1cc2ncnc(Nc3ccc(O)c(Br)c3)c2cc1OC [WHI-154] | induce apoptosis | suppress proliferation |
